Literature values as cited in patent US20230140155A1, “MEDICAMENT FOR TREATMENT AND/OR PREVENTION OF CANCER” (TORAY INDUSTRIES, INC., priority 2020, published 2023).

Test system: basal-like subtype breast cancer (BLBC)
Settings: with docetaxel following epirubicin and cyclophosphamide (EC treatment)

Structure (SMILES): [NH2][Pt]1([NH2])[O]C(=O)C2(CCC2)C(=O)[O]1 [carboplatin, (SP-4-2)-diammine[cyclobutan-1,1-dicaruboxylato(2-)-O,O′]platinum]
- effectiveness for treatment of BLBC: not effective
